Reference: patent US20200338084A1, “INHIBITORS OF LOW MOLECULAR WEIGHT PROTEIN TYROSINE PHOSPHATASE (LMPTP) AND USES THEREOF” (Sanford Burnham Prebys Medical Discovery Institute, priority 2018, published 2020)
pIC50: −log10 of the molar value.

Molecular target: T1, human LMPTP-A (Homo sapiens, UniProt P24666)
T1 sequence (P24666 1-158): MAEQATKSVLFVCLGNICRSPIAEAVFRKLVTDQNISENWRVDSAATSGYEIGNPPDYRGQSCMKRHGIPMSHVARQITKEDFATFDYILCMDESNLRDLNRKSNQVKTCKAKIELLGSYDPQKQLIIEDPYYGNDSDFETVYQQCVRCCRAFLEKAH
Experiment: Enzyme Assay of Inhibition of LMPTP-A
Type: biochemical
Details: phosphatase assay, OMFP or pNPP substrate, 50 mM Bis-Tris pH 6.0, 37° C.
Outline: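 Recombinant human LMPTP-A in 50 mM Bis-Tris pH 6.0, 1 mM DTT, 0.01% Triton X-100 at 37° C. Substrate OMFP read continuously by fluorescence (485/525 nm), or pNPP stopped with NaOH and read at 405 nm. IC50 taken from inhibitor concentration versus % activity plots.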

Structure (SMILES) | pIC50
Nc1ncn(Cc2c(Br)ccnc2Cl)c2ncnc1-2 [3-[(4-bromo-2-chloro-3-pyridyl)methyl]-3-hydropurine-6-ylamine] | 4.70 to 6.00
COc1cccc(Cl)c1Cn1cnc(N)c2ncnc1-2 [3-(2-chloro-6-methoxybenzyl)-3H-purin-6-amine] | 4.70 to 6.00
Nc1ncn(Cc2c(Cl)cccc2Cl)c2nc(-c3ccc(Cl)cc3)nc1-2 [3-[(2,6-Dichlorophenyl)methyl]-8-(4-chlorophenyl)-3-hydropurine-6-ylamine] | ≥ 6.00
Nc1ncn(Cc2ccccn2)c2ncnc1-2 [3-Pyridin-2-ylmethyl-3H-purin-6-ylamine] | 4.70 to 6.00
Clc1cccc(Cn2cnc(NCc3ccco3)c3ncnc2-3)c1 [[3-(3-Chloro-benzyl)-3H-purin-6-yl]-furan-2-ylmethyl-amine] | ≤ 4.70
Nc1ncn(Cc2c(Cl)cccc2Cl)c2nc(-c3ccco3)nc1-2 [3-[(2,6-Dichlorophenyl)methyl]-8-(2-furyl)-3-hydropurine-6-ylamine] | ≥ 6.00
Cc1noc(C)c1Cn1cnc(N)c2ncnc1-2 [3-((3,5-dimethylisoxazol-4-yl)methyl)-3H-purin-6-amine] | 4.70 to 6.00
Nc1ncn(Cc2c(Cl)cccc2Cl)c2nc(-c3cc(F)c(F)cc3F)nc1-2 [3-[(2,6-dichlorophenyl)methyl]-8-(2,4,5-trifluorophenyl)-3-hydropurine-6-ylamine] | ≥ 6.00
Nc1ncn(Cc2c(Cl)cccc2Cl)c2nc(-c3cccc(Cl)n3)nc1-2 [3-[(2,6-Dichlorophenyl)methyl]-8-(6-chloro(2-pyridyl))-3-hydropurine-6-ylamine] | ≥ 6.00
COc1ccncc1-c1nc2c(N)ncn(Cc3c(Cl)cccc3Cl)c-2n1 [3-[(2,6-Dichlorophenyl)methyl]-8-(4-methoxy(3-pyridyl))-3-hydropurine-6-ylamine] | ≥ 6.00
NC(=O)c1cccc(Cl)c1Cn1cnc(N)c2ncnc1-2 [2-((6-amino-3H-purin-3-yl)methyl)-3-chlorobenzamide] | ≥ 6.00
Cc1csc(-c2nc3c(N)ncn(Cc4c(Cl)cccc4Cl)c-3n2)c1 [3-[(2,6-Dichlorophenyl)methyl]-8-(4-methyl(2-thienyl))-3-hydropurine-6-ylamine] | ≤ 4.70
COc1ccc(Cn2cnc(NCc3ccco3)c3ncnc2-3)cc1 [Furan-2-ylmethyl-[3-(4-methoxy-benzyl)-3H-purin-6-yl]-amine] | ≤ 4.70
COC(=O)c1cccc(Cl)c1Cn1cnc(N)c2ncnc1-2 [2-(6-Amino-purin-3-ylmethyl)-3-chloro-benzoic acid methyl ester] | ≥ 6.00
Nc1ncn(Cc2c(Cl)cccc2Cl)c2nc(-c3ccc[nH]3)nc1-2 [3-[(2,6-Dichlorophenyl)methyl]-8-pyrrol-2-yl-3-hydropurine-6-ylamine] | ≥ 6.00
Nc1ncn(Cc2c(Cl)cccc2Cl)c2nc(Cl)nc1-2 [3-[(2,6-Dichlorophenyl)methyl]-8-chloro-3-hydropurine-6-ylamine] | ≤ 4.70
Nc1ncn(Cc2c(Cl)cccc2Cl)c2nc(-c3ccsc3)nc1-2 [3-[(2,6-Dichlorophenyl)methyl]-8-(3-thienyl)-3-hydropurine-6-ylamine] | ≥ 6.00
Nc1ncn(Cc2c(Cl)cccc2Cl)c2nc(COc3ccc(Br)cc3)nc1-2 [3-[(2,6-dichlorophenyl)methyl]-8-[(4-bromophenoxy)methyl]-3-hydropurine-6-ylamine] | ≥ 6.00
Nc1ncn(Cc2c(Cl)cccc2Cl)c2nc(Cc3ccc(C(F)(F)F)cc3)nc1-2 [3-[(2,6-dichlorophenyl)methyl]-8-{[4-(trifluoromethyl)phenyl]methyl}-3-hydropurine-6-ylamine] | ≥ 6.00
Nc1ncn(Cc2c(Br)cccc2Br)c2ncnc1-2 [3-(2,6-dibromobenzyl)-3H-purin-6-amine] | ≥ 6.00
Nc1ncn(Cc2ccccc2)c2ncnc1-2 [3-benzyl-3-hydropurine-6-ylamine, 3-Benzyl-3-hydropurine-6-ylamine] | 4.70 to 6.00
Nc1ncn(Cc2c(Cl)cccc2Cl)c2nc(C3=CCNCC3)nc1-2 [3-(2,6-Dichloro-benzyl)-8-(1,2,3,6-tetrahydro-pyridin-4-yl)-3H-purin-6-ylamine] | ≥ 6.00

Second part, the molecule after the results:

pIC50 | Structure (SMILES)
4.70 to 6.00 | COc1ccccc1Nc1ncn(Cc2c(Cl)cccc2Cl)c2ncnc1-2 [{3-[(2,6-Dichlorophenyl)methyl](3-hydropurin-6-yl)}(2-methoxyphenyl)amine]
≤ 4.70 | O=S(=O)(Cc1cccc(F)c1)Nc1ncn(Cc2c(Cl)cccc2Cl)c2ncnc1-2 [{3-[(2,6-dichlorophenyl)methyl](3-hydropurin-6-yl)}{[(3-fluorophenyl)methyl]sulfonyl}amine]
4.70 to 6.00 | CCCCNc1ncn(Cc2c(Cl)cccc2Cl)c2ncnc1-2 [Butyl-[3-(2,6-dichloro-benzyl)-3H-purin-6-yl]-amine]
4.70 to 6.00 | COc1cccc(Nc2ncn(Cc3c(Cl)cccc3Cl)c3ncnc2-3)c1 [{3-[(2,6-Dichlorophenyl)methyl](3-hydropurin-6-yl)}(3-methoxyphenyl)amine]
4.70 to 6.00 | Clc1cccc(Cl)c1Cn1cnc(Nc2ccccc2)c2ncnc1-2 [{3-[(2,6-Dichlorophenyl)methyl](3-hydropurin-6-yl)}phenylamine]
4.70 to 6.00 | CN(C)C(=O)c1cccc(Nc2ncn(Cc3c(Cl)cccc3Cl)c3ncnc2-3)c1 [3-((3-(2,6-dichlorobenzyl)-3H-purin-6-yl)amino)-N,N-dimethylbenzamide]
≤ 4.70 | Cc1ccc(S(=O)(=O)Nc2ncn(Cc3c(Cl)cccc3Cl)c3ncnc2-3)cc1 [{3-[(2,6-dichlorophenyl)methyl](3-hydropurin-6-yl)}[(4-methylphenyl)sulfonyl]amine]
≥ 6.00 | COc1cccc(-c2nc3c(N)ncn(Cc4c(Cl)cccc4Cl)c-3n2)c1 [3-[(2,6-Dichlorophenyl)methyl]-8-(3-methoxyphenyl)-3-hydropurine-6-ylamine]
≤ 4.70 | CN(C)c1ncn(Cc2c(Cl)cccc2Cl)c2ncnc1-2 [[3-(2,6-Dichloro-benzyl)-3H-purin-6-yl]-dimethyl-amine]
4.70 to 6.00 | Fc1ccccc1Nc1ncn(Cc2c(Cl)cccc2Cl)c2ncnc1-2 [{3-[(2,6-Dichlorophenyl)methyl](3-hydropurin-6-yl)}(2-fluorophenyl)amine]
4.70 to 6.00 | O=C(Nc1ncn(Cc2c(Cl)cccc2Cl)c2ncnc1-2)c1ccco1 [Furan-2-carboxylicacid [3-(2,6-dichloro-benzyl)-3H-purin-6-yl]-amide]
4.70 to 6.00 | CCC(=O)Nc1ncn(Cc2c(Cl)cccc2Cl)c2ncnc1-2 [N-[3-(2,6-Dichloro-benzyl)-3 H-purin-6-yl]-propionamide]
4.70 to 6.00 | FC(F)Oc1ccccc1Nc1ncn(Cc2c(Cl)cccc2Cl)c2ncnc1-2 [3-(2,6-dichlorobenzyl)-N-(2-(difluoromethoxy)plienyl)-3H-purin-6-amine]
≥ 6.00 | Cc1cccc(-c2nc3c(N)ncn(Cc4c(Cl)cccc4Cl)c-3n2)c1 [3-[(2,6-Dichlorophenyl)methyl]-8-(3-methylphenyl)-3-hydropurine-6-ylamine]
4.70 to 6.00 | COc1ccc(Nc2ncn(Cc3c(Cl)cccc3Cl)c3ncnc2-3)cc1 [3-(2,6-Dichlorobenzyl)-N-(4-methoxyphenyl)-3H-purin-6-amine]
4.70 to 6.00 | CC(C)(C)c1cccc(Nc2ncn(Cc3c(Cl)cccc3Cl)c3ncnc2-3)c1 [{3-[(2,6-Dichlorophenyl)methyl](3-hydropurin-6-yl)}[3-(tert-butyl)phenyl]amine]
4.70 to 6.00 | Clc1cccc(Cl)c1Cn1cnc(NC2CC2)c2ncnc1-2 [Cyclopropyl-[3-(2,6-dichloro-benzyl)-3H-purin-6-yl]-amine]
4.70 to 6.00 | Oc1ccc(Nc2ncn(Cc3c(Cl)cccc3Cl)c3ncnc2-3)cc1 [4-({3-[(2,6-Dichlorophenyl)methyl]-3-hydropurin-6-yl}amino)phenol]
4.70 to 6.00 | Clc1cccc(Nc2ncn(Cc3c(Cl)cccc3Cl)c3ncnc2-3)c1Cl [(2,3-Dichlorophenyl){3-[(2,6-dichlorophenyl)methyl](3-hydropurin-6-yl)}amine]
4.70 to 6.00 | Cc1ccc(CNc2ncn(Cc3c(Cl)cccc3Cl)c3ncnc2-3)o1 [{3-[(2,6-dichlorophenyl)methyl](3-hydropurin-6-yl)}[(5-methyl(2-furyl))methyl]amine]
4.70 to 6.00 | Oc1ccccc1Nc1ncn(Cc2c(Cl)cccc2Cl)c2ncnc1-2 [2-({3-[(2,6-Dichlorophenyl)methyl]-3-hydropurin-6-yl}amino)phenol]
4.70 to 6.00 | CNc1ncn(Cc2c(Cl)cccc2Cl)c2ncnc1-2 [[3-(2,6-Dichloro-benzyl)-3H-purin-6-yl]-methyl-amine]
≥ 6.00 | N#Cc1ccccc1-c1nc2c(N)ncn(Cc3c(Cl)cccc3Cl)c-2n1 [2-{6-Amino-3-[(2,6-dichlorophenyl)methyl]-3-hydropurin-8-yl}benzenecarbonitrile]
4.70 to 6.00 | O=[N+]([O-])c1ccc(Nc2ncn(Cc3c(Cl)cccc3Cl)c3ncnc2-3)cc1 [{3-[(2,6-Dichlorophenyl)methyl](3-hydropurin-6-yl)}(4-nitrophenyl)amine]
4.70 to 6.00 | CC(=O)Nc1ncn(Cc2c(Cl)cccc2Cl)c2ncnc1-2 [N-[3-(2,6-Dichloro-benzyl)-3 H-purin-6-yl]-acetamide]
4.70 to 6.00 | Clc1cccc(Nc2ncn(Cc3c(Cl)cccc3Cl)c3ncnc2-3)c1 [{3-[(2,6-Dichlorophenyl)methyl](3-hydropurin-6-yl)}(3-chlorophenyl)amine]
4.70 to 6.00 | Fc1ccccc1CNc1ncn(Cc2c(Cl)cccc2Cl)c2ncnc1-2 [[3-(2,6-Dichloro-benzyl)-3H-purin-6-yl]-(2-fluoro-benzyl)-amine]
≥ 6.00 | CC(c1ccccc1)c1nc2c(N)ncn(Cc3c(Cl)cccc3Cl)c-2n1 (centres unmarked) [3-[(2,6-Dichlorophenyl)methyl]-8-(phenylethyl)-3-hydropurine-6-ylamine]
